Legend:
Type in all cases: in vivo
Blattella germanica [1] = assay: Experimental Example 15: treated filter paper in paper box, Blattella germanica; conditions: 0.1 ml of 2.5% (w/v) acetone solution on filter paper in paper box; after 7 days
Protocol: 2.5% (w/v) solutions of the present compounds (23), (24) and (31) in acetone were prepared. 0.1 ml of the solution was added dropwise onto a filter paper with 2 cm×2 cm and then air-dried. This filter paper was attached to the center of the inside bottom of a paper box having 10 cm (width)×2 cm (height)×7 cm (depth) with a two-sided tape. One hole of 5 mm in width and 2 cm in height was made through one side of this box. This box was placed in a plastic vat with 25 cm×20 cm×8 cm in height and therein 10 females and 10 males of Blattella germanica were released. The inside wall of the plastic vat used in this experiment was coated with talc for preventing the escape of cockroaches. The plastic vat contained feed and water and left at 25° C. After 7 days, Blattella germanica was observed and the death rate of the pest was calculated. This experiment was repeated two times.

Blattella germanica [2] = assay: Experimental Example 13: direct oil spray in CSMA chamber, Blattella germanica; conditions: 1.5 ml of 0.025% (w/v) oil sprayed directly; after 3 days
Protocol: 7.5 mg of the present compound (31) was dissolved in 30 mL of a mixture of 90 parts by weight of Isopar M (isoparaffin, the registered trade name of Exxon Chemical) and 10 parts by weight of dichloromethane to prepare a 0.025% (w/v) oil. A plastic container (diameter: 9.5 cm, height: 4 cm, bottom part of 16 mesh wire) containing 10 imagoes (5 males and 5 females) of Blattella germanica was placed on the bottom of a CSMA chamber (width: 46 cm, depth: 46 cm, height: 70 cm).
1.5 ml of the oil was directly sprayed on test cockroaches from the upper side of the CSMA chamber. After 30 seconds from spraying, the container containing cockroaches was removed. All cockroaches were transferred to another clean plastic container (200 mL) and left together with feed and water at 25° C. After 3 days, the number of surviving Blattella germanica was examined and the death rate of the pest was calculated.

Blattella germanica [3] = assay: Experimental Example 22: treated filter paper suspended in chamber, Blattella germanica; conditions: 10 mL of 10% (w/v) acetone solution on filter paper; 70 cm cube chamber; after 72 hours
Protocol: A 10% (w/v) solution of the present compound (31) in acetone is prepared. 10 mL of the solution is uniformly added dropwise to a filter paper with 10 cm×25 cm and then air-dried. The filter paper is suspended from the center of the ceiling of a chamber with 70 cm (width)×70 cm (depth)×70 cm (height). After 20 imagoes (10 males and 10 females) of Blattella germanica are released, the door of the chamber is closed. Feed and water are placed in the glass chamber.

Periplaneta americana = assay: Experimental Example 17: treated filter paper in paper box, Periplaneta americana; conditions: 0.1 ml of 5% (w/v) acetone solution on filter paper in paper box; after 7 days
Protocol: A 5% (w/v) solution of the present compound (31) in acetone was prepared. 0.1 ml of the solution was added dropwise onto a filter paper with 2 cm×2 cm and then air-dried. This filter paper was attached to the center of the inside bottom of a paper box having 10 cm (width)×2 cm (height)×7 cm (depth) with a two-sided tape. One hole of 2 mm in width and 2 cm in height was made through one side of this box. This box was placed in a plastic vat with 25 cm×20 cm×8 cm in height and therein 3 females and 3 males of Periplaneta americana were released. The inside wall of the plastic vat used in this experiment was coated with talc for preventing the escape of cockroaches. The plastic vat contained feed and water and left at 25° C. After 7 days, Periplaneta americana was observed and the death rate of the pest was calculated. This experiment was repeated two times.

Coptotermes formosanus = assay: Experimental Example 12: topical application, Coptotermes formosanus; conditions: 0.2 μl of 0.005% (w/v) solution onto notum of thorax of ergates; after one day
Protocol: The present compound (31) was dissolved in a 0.05% (w/v) solution of Sudan red 7B in acetone so that the present compound concentration was 0.005% (w/v) to prepare an experimental pesticidal solution. Onto the notum of the thorax of ergates of Coptotermes formosanus, 0.2 μl of this experimental solution was added dropwise. After one day from treatment, the number of surviving pests was examined and the death rate of the pest was calculated.

Culex pipiens pallens = assay: Experimental Example 25: electric mosquito mat, Culex pipiens pallens; conditions: electric mosquito mat (Formulation Example 18); 20 minutes exposure, after 24 hours
Protocol: An electric mosquito mat of the present compound (31) prepared according to Formulation Example 18 is set on a heater for an electric mosquito mat and then placed on the centre of the floor of a chamber having 70 cm (width)×70 cm (depth)×70 cm (height). After the electric mosquito mat is initiated to be heated with the heater, about 20 female imagoes of Culex pipiens pallens are released in the chamber. After 20 minutes, all test pests are collected, placed in a plastic cup together with absorbent cotton impregnated with 5% sugar water, and left at 25° C.

N#CC(C#N)(CCC(F)(F)F)CC(F)(F)C(F)(F)C(F)(F)C(F)F [(31)]
death rate of the pest (Blattella germanica [1]): 100%
death rate of the pest (Blattella germanica [2]): 100%
pesticidal effect (Blattella germanica [3]): pesticidal effect on Blattella germanica is confirmed
death rate of the pest (Periplaneta americana): 100%
death rate of the pest (Coptotermes formosanus): 100%
pesticidal effect (Culex pipiens pallens): pesticidal effect on Culex pipiens pallens is confirmed

— patent US20070112068A1, “Nitrile compound and its use in pest control” (priority 2003, published 2007)
